Data reported in US20130197043A1, “USE OF THE FETAL REPROGRAMMING OF A PPAR AGONIST” (SNU R&DB FOUNDATION, priority 2010, published 2013).
pEC50: −log10 of the molar value.

How the values were obtained:
[1] = tested on: mice subjected to fetal reprogramming; assay: Body weight gain on high-fat feedstuff of fetal-reprogrammed mice; assay type: in vivo; details: 13-week old mice, 35% fat feedstuff, 84 days
Excerpt: Lipometabolism has deep correlation with the occurrence of obesity and diabetes. Therefore, the present inventors checked the fetal reprogramming effect of PPAR δ on the occurrence of metabolic syndrome. The control group and administration group of 13-week old mice were fed with high-fat feedstuff (fat content: 35%) over a total of 84 days while being weighed once per week. As a result, it may be seen that, the body weight gain was suppressed by 8% in the mice subjected to fetal reprogramming by PPAR δ agonist compound (CMDD1111) as compared with the control group, as shown in FIG. 18.

HDL in serum = assay: High-density lipoprotein cholesterol (HDL) in serum; assay type: in vivo; details: mice fed 10% fat feedstuff over 6 weeks
Excerpt: High-density lipoprotein cholesterol (HDL) has been known to play an important role in treating lipid metabolic disorders such as arteriosclerosis and hyperlipidemia while lowering the cholesterol level of an epidermal cell and mitigating an inflammatory reaction. Serum was separated from the mice fed over a 6-week period of feedstuff containing 10% fat in order to confirm the high-density cholesterol increase effect of Compounds 5 and 9, which were the developed materials of the present invention.

ApoE−/− mice = assay: Arteriosclerosis prevention and treatment, en face analysis of arteries; assay type: in vivo; details: 14 weeks feedstuff, dosed over the last 4 weeks
Protocol: The in vivo test using ApoE−/− mice was conducted in order to verify the arteriosclerosis prevention and treatment effect of Compounds 5 and 9, the developed materials of the present invention. ApoE−/− mice, as an arteriosclerosis disease model, were fed with […] feedstuff (21% high fat and 1.25% high cholesterol feedstuff) over 14 weeks, to thereby induce arteriosclerosis, and then Compounds 5 and 9 were administered to the mice over the last 4 weeks. The medicine treatment manner was adopted. Arteries of the mice were resected, and then analyzed by the en face method. As the result, it was confirmed that Compounds 5 and 9 had 23% and 18% decreases in occurrence of arteriosclerosis, respectively.

[2] = tested on: mice with high-fat-induced diabetes; assay: Glucose tolerance test (GTT) in mice with high-fat-induced diabetes; assay type: in vivo; details: 10 mg/Kg/day over 70 days; glucose 1.5 g/kg
Protocol: The glucose tolerance test (GTT) was conducted in order to verify the diabetes improvement effect of the material according to the present invention. Glucose (1.5 g/kg) was abdominally administer to mice with high-fat-induced diabetes, which was orally administered with medicine over 70 days, and then the blood glucose level change was measured for 2 hours. […] In contrast, the mouse control group administered with the vehicle […] normal blood glucose level even after 120 minutes.

hPPARg = molecular target: T1, hPPARg (Homo sapiens, UniProt P37231); assay: Transfection assay in CV-1 cells, hPPARg; assay type: cell-based; details: luciferase reporter
T1 construct: expressed in transfected cells; host or cells: CV-1 cells
T1 sequence (P37231 1-505): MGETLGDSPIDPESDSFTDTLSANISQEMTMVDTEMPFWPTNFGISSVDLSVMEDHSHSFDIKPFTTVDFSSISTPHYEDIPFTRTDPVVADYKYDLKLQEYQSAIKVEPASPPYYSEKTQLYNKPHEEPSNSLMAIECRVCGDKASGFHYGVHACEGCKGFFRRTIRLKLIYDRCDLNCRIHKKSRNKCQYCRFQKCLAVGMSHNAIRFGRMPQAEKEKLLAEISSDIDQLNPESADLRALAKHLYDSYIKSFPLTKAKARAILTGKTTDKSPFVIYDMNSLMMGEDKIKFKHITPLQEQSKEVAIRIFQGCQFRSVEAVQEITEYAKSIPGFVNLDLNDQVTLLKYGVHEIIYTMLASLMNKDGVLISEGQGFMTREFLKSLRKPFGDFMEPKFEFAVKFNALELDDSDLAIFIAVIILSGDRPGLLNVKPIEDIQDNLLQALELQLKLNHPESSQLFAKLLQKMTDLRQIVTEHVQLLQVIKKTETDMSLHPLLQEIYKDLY
Protocol: (§1) This assay was conducted by using CV-1 cells. The cells were cultured on a 96-well plate with a DMEM medium containing 10% FBS, DBS (delipidated), and 1% penicillin/streptomycin in 37° C. of an incubator 5% of carbon dioxide. Test was conducted in four stages of cell inoculation, transfection, treatment with the developed material, and result confirmation. The CV-1 cells were inoculated on the 96-well plate at a cell density at 5,000 cells/well, and after 24 hours, transfection was performed. PPARs plasmid DNA, reporter DNA, and β-galactosidase DNA were mixed with a transfection reagent, and then used to treat the cells. The developed material was dissolved in dimethylsulfoxide (DMSO), and then was used to treat the cells by using media at various concentrations. After 24 hours of culturing in an incubator, the cells were lysed with a lysis buffer and luciferase activity and β-galactosidase activity were measured using a luminometer and a microplate reader. The measured luciferase value was calibrated with the β-galactosidase value, and this value was depicted on a graph and EC50 was determined.

hPPAR δ = molecular target: T2, hPPAR δ (Homo sapiens, UniProt Q03181); assay: Transfection assay in CV-1 cells, hPPAR δ; assay type: cell-based; details: luciferase reporter
T2 construct: expressed in transfected cells; host or cells: CV-1 cells
T2 sequence (Q03181 1-441): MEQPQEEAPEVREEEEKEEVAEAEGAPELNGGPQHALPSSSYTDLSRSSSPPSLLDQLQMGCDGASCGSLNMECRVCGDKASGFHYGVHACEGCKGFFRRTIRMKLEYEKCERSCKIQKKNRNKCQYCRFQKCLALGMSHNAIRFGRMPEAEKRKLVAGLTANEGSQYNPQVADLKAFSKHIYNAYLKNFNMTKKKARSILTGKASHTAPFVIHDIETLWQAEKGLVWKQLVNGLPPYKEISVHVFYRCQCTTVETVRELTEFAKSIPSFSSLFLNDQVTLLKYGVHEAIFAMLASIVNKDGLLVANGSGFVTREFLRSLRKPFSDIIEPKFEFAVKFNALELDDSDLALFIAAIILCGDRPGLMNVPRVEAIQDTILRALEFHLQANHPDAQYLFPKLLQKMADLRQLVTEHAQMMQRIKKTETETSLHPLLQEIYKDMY
Protocol: as §1

EC50 hPPARg (hPPARg) | pEC50 (hPPAR δ) | SMILES | body weight gain suppression versus control [1] [%] | HDL increase in serum (HDL in serum) [%] | decrease in occurrence of arteriosclerosis (ApoE−/− mice) [%] | blood glucose level change between 20 and 40 minutes versus control [2] | complete glucose clearance after [2] [min]
 |  | Cc1cc(SC(Cc2ccccc2)c2sc(-c3ccc(C(F)(F)F)cc3)nc2C)ccc1OCC(=O)O (stereo not shown) [CMDD1111] | 8 |  |  |  | 
ia | 8.48 | Cc1cc(SC(Cc2ccc(-c3ccccc3)cc2)c2sc(-c3ccc(C(F)(F)F)cc3)nc2C)ccc1OCC(=O)O (stereo not shown) [Compound 5] |  | 68 | 23 | rapid decrease | 100
ia | 8.41 | Cc1cc(SC(Cc2ccc(-c3ccc(F)cc3)cc2)c2sc(-c3ccc(C(F)(F)F)cc3)nc2C)ccc1OCC(=O)O (stereo not shown) [Compound 9] |  | 62 | 18 | rapid decrease | 100
